From the supplement of paper PMC11208160
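Further: IS621 recombinase and bridge RNA in Escherichia coli cells.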

Assay: recombinant barcode read abundance after kanamycin selection (control-corrected) (log10(CPM+1)); higher = more efficient recombination; sequences stand for … in AGTGCAGAGAAAATCGGCCAGTTTTCTCTGCCTGCAGTCCGCATGCCGT…AGATTTATGCAGCGGACTGCCTTTCTCCCAAAGTGATAAACCGGACAGTATCATGGACCGGTTTTCCCGGTAATCCGTATTTGCAAGGTTGGTTTCACT; site = the 11-nt target
How it was run: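 Recombination efficiency in this pooled E. coli screen uses counts per million of barcodes at recombinant junctions, averaged and corrected against the control. The reported form is log10(CPM+1). Two replicates were plated on chloramphenicol/ampicillin LB agar as control and two on chloramphenicol/ampicillin/kanamycin with 0.1 mM IPTG.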
With “TGCTGTGCTTGGGTTCTAACCTGTTGCCT (site TGCTGTGCTAG)” the “recombinant barcode read abundance (log10)” value was 0.29. With “TGCTGTGCTTGGGTTCTAACCTGTTGCCT (site TGCTGTTCTAG)” the “recombinant barcode read abundance (log10)” value was 0.279. For “TGGAACACTTGGGTTCTAACCTGTTGCCT (site TGGAACACTAG)”, the “recombinant barcode read abundance (log10)” value was 0.98. In the case of “TGGAACACTTGGGTTCTAACCTGTTGCCT (site TGGACCACTAG)”, the “recombinant barcode read abundance (log10)” value was 0.0483. With “TGGAACACTTGGGTTCTAACCTGTTGCCT (site TGGAGCACTAG)” the “recombinant barcode read abundance (log10)” value was 0.0596. With “TGGAACACTTGGGTTCTAACCTGTTGCCT (site TGGATCACTAG)” the “recombinant barcode read abundance (log10)” value was 0.119. With “TGGACCTCTTGGGTTCTAACCTGTTGCCA (site CTACGAACTCC)” the “recombinant barcode read abundance (log10)” value was 0.626. With “TGGACCTCTTGGGTTCTAACCTGTTGCCA (site TGGACCTCTTG)” the “recombinant barcode read abundance (log10)” value was 0.222. With “TGGACGTCTTGGGTTCTAACCTGTTGCCT (site TGGACGCCTAG)” the “recombinant barcode read abundance (log10)” value was 0.125. In the case of “TGGACGTCTTGGGTTCTAACCTGTTGCCT (site TGGACGTCTAG)”, the “recombinant barcode read abundance (log10)” value was 0.865. With “TGGACTTCTTGGGTTCTAACCTGTTGCTC (site TGGACTTCTCA)” the “recombinant barcode read abundance (log10)” value was 0.24. With “TGGACTTCTTGGGTTCTAACCTGTTGCTC (site TGGACTTCTGA)” the “recombinant barcode read abundance (log10)” value was 0.141. With “TGGCAGACTTGGGTTCTAACCTGTTGCCT (site TGGCAGACTAG)” the “recombinant barcode read abundance (log10)” value was 0.215. With “TGGCAGACTTGGGTTCTAACCTGTTGCCT (site TGGCAGCCTAG)” the “recombinant barcode read abundance (log10)” value was 0.263. For “TGGCAGACTTGGGTTCTAACCTGTTGCCT (site TGGCAGGCTAG)”, the “recombinant barcode read abundance (log10)” value was 0.0442. For “TGGCAGACTTGGGTTCTAACCTGTTGCCT (site TGGCAGTCTAG)”, the “recombinant barcode read abundance (log10)” value was 0.232. With “TGGCAGCCTTGGGTTCTAACCTGTTGCCT (site TGGCAGACTAG)” the “recombinant barcode read abundance (log10)” value was 0.0766. In the case of “TGGCAGCCTTGGGTTCTAACCTGTTGCCT (site TGGCAGCCTAG)”, the “recombinant barcode read abundance (log10)” value was 0.216. With “TGGCAGCCTTGGGTTCTAACCTGTTGCCT (site TGGCAGGCTAG)” the “recombinant barcode read abundance (log10)” value was 0.231. For “TGGCAGCCTTGGGTTCTAACCTGTTGCCT (site TGGCAGTCTAG)”, the “recombinant barcode read abundance (log10)” value was 0.0934. In the case of “TGGCGTGCTTGGGTTCTAACCTGTTGCCT (site TGGCGTGCTAG)”, the “recombinant barcode read abundance (log10)” value was 0.382. With “TGGCGTGCTTGGGTTCTAACCTGTTGCCT (site TGTTGTGCTAG)” the “recombinant barcode read abundance (log10)” value was 0.118. In the case of “TGGCTGTCTTGGGTTCTAACCTGTTGCCT (site TGGCTGTCTAG)”, the “recombinant barcode read abundance (log10)” value was 1.2. For “TGGCTGTCTTGGGTTCTAACCTGTTGCCT (site TGGTTGTCTAG)”, the “recombinant barcode read abundance (log10)” value was 0.0561. With “TGGTACCCTTGGGTTCTAACCTGTTGCTA (site GTTACTACTCG)” the “recombinant barcode read abundance (log10)” value was 0.0129. In the case of “TGGTACCCTTGGGTTCTAACCTGTTGCTA (site TGGTACCCTTA)”, the “recombinant barcode read abundance (log10)” value was 1.36. For “TGGTAGTCTTGGGTTCTAACCTGTTGCGT (site AAAGCTACTTA)”, the “recombinant barcode read abundance (log10)” value was 0.0198. For “TGGTAGTCTTGGGTTCTAACCTGTTGCGT (site TGGTAGTCTAC)”, the “recombinant barcode read abundance (log10)” value was 2.57. With “TGGTATACTTGGGTTCTAACCTGTTGCCT (site TGGTATACTAG)” the “recombinant barcode read abundance (log10)” value was 0.241. With “TGGTATACTTGGGTTCTAACCTGTTGCCT (site TGGTATCCTAG)” the “recombinant barcode read abundance (log10)” value was 0.0279. For “TGGTATACTTGGGTTCTAACCTGTTGCCT (site TGGTATGCTAG)”, the “recombinant barcode read abundance (log10)” value was 0.183. In the case of “TGGTATACTTGGGTTCTAACCTGTTGCCT (site TGGTATTCTAG)”, the “recombinant barcode read abundance (log10)” value was 0.122. With “TGGTGTGCTTGGGTTCTAACCTGTTGCCA (site TAGTGTCCTTG)” the “recombinant barcode read abundance (log10)” value was 0.0537. In the case of “TGGTGTGCTTGGGTTCTAACCTGTTGCCA (site TGGTGTGCTTG)”, the “recombinant barcode read abundance (log10)” value was 0.267. With “TGTAAGGCTTGGGTTCTAACCTGTTGCTT (site TGTAAGACTCA)” the “recombinant barcode read abundance (log10)” value was 0.142. In the case of “TGTAAGGCTTGGGTTCTAACCTGTTGCTT (site TGTAAGGCTAA)”, the “recombinant barcode read abundance (log10)” value was 0.27. With “TGTAATCCTTGGGTTCTAACCTGTTGCCT (site TGTAATACTAG)” the “recombinant barcode read abundance (log10)” value was 0.327. In the case of “TGTAATCCTTGGGTTCTAACCTGTTGCCT (site TGTAATCCTAG)”, the “recombinant barcode read abundance (log10)” value was 0.025. With “TGTAATCCTTGGGTTCTAACCTGTTGCCT (site TGTAATGCTAG)” the “recombinant barcode read abundance (log10)” value was 0.032. With “TGTAATCCTTGGGTTCTAACCTGTTGCCT (site TGTAATTCTAG)” the “recombinant barcode read abundance (log10)” value was 0.0105. In the case of “TGTAATGCTTGGGTTCTAACCTGTTGCCT (site TGTAATACTAG)”, the “recombinant barcode read abundance (log10)” value was 0.0123. With “TGTAATGCTTGGGTTCTAACCTGTTGCCT (site TGTAATCCTAG)” the “recombinant barcode read abundance (log10)” value was 0.181. In the case of “TGTAATGCTTGGGTTCTAACCTGTTGCCT (site TGTAATGCTAG)”, the “recombinant barcode read abundance (log10)” value was 0.912. In the case of “TGTAATGCTTGGGTTCTAACCTGTTGCCT (site TGTAATTCTAG)”, the “recombinant barcode read abundance (log10)” value was 0.181. With “TGTAATTCTTGGGTTCTAACCTGTTGCCT (site TGTAATACTAG)” the “recombinant barcode read abundance (log10)” value was 0.139. In the case of “TGTAATTCTTGGGTTCTAACCTGTTGCCT (site TGTAATCCTAG)”, the “recombinant barcode read abundance (log10)” value was 0.0849. With “TGTAATTCTTGGGTTCTAACCTGTTGCCT (site TGTAATGCTAG)” the “recombinant barcode read abundance (log10)” value was 0. With “TGTAATTCTTGGGTTCTAACCTGTTGCCT (site TGTAATTCTAG)” the “recombinant barcode read abundance (log10)” value was 0.18. With “TGTCAAACTTGGGTTCTAACCTGTTGCGT (site TGTCAAACTAC)” the “recombinant barcode read abundance (log10)” value was 0.838. For “TGTCAAACTTGGGTTCTAACCTGTTGCGT (site TGTCAACCTAC)”, the “recombinant barcode read abundance (log10)” value was 0.0278. For “TGTCGAGCTTGGGTTCTAACCTGTTGCCG (site TGTAGAGCTCG)”, the “recombinant barcode read abundance (log10)” value was 0.0366. With “TGTCGAGCTTGGGTTCTAACCTGTTGCCG (site TGTCGAGCTCG)” the “recombinant barcode read abundance (log10)” value was 0.107. For “TGTCGAGCTTGGGTTCTAACCTGTTGCCG (site TGTGGAGCTCG)”, the “recombinant barcode read abundance (log10)” value was 0.0604. In the case of “TGTCGAGCTTGGGTTCTAACCTGTTGCCG (site TGTTGAGCTCG)”, the “recombinant barcode read abundance (log10)” value was 0.106. In the case of “TGTCGCTCTTGGGTTCTAACCTGTTGCCT (site TGACGCTCTAG)”, the “recombinant barcode read abundance (log10)” value was 0.0464. In the case of “TGTCGCTCTTGGGTTCTAACCTGTTGCCT (site TGCCGCTCTAG)”, the “recombinant barcode read abundance (log10)” value was 0.0379. In the case of “TGTCGCTCTTGGGTTCTAACCTGTTGCCT (site TGGCGCTCTAG)”, the “recombinant barcode read abundance (log10)” value was 0.129. With “TGTCGCTCTTGGGTTCTAACCTGTTGCCT (site TGTCGCTCTAG)” the “recombinant barcode read abundance (log10)” value was 1.1. For “TGTCGGACTTGGGTTCTAACCTGTTGCAA (site TGTCGGACTAT)”, the “recombinant barcode read abundance (log10)” value was 0.146. With “TGTCGGACTTGGGTTCTAACCTGTTGCAA (site TGTCGGACTCT)” the “recombinant barcode read abundance (log10)” value was 0.149. In the case of “TGTCGGACTTGGGTTCTAACCTGTTGCAA (site TGTCGGACTGT)”, the “recombinant barcode read abundance (log10)” value was 0.0423. With “TGTCGGACTTGGGTTCTAACCTGTTGCAA (site TGTCGGACTTT)” the “recombinant barcode read abundance (log10)” value was 0.421. In the case of “TGTCGGACTTGGGTTCTAACCTGTTGCAT (site TGTCGGACTAT)”, the “recombinant barcode read abundance (log10)” value was 1.32. With “TGTCGGACTTGGGTTCTAACCTGTTGCAT (site TGTCGGACTCT)” the “recombinant barcode read abundance (log10)” value was 0.18. For “TGTCGGACTTGGGTTCTAACCTGTTGCAT (site TGTCGGACTGT)”, the “recombinant barcode read abundance (log10)” value was 0.0199. For “TGTCGGACTTGGGTTCTAACCTGTTGCAT (site TGTCGGACTTT)”, the “recombinant barcode read abundance (log10)” value was 0.0384. In the case of “TGTCTACCTTGGGTTCTAACCTGTTGCTA (site TGTCTACCTTA)”, the “recombinant barcode read abundance (log10)” value was 0.103. For “TGTCTACCTTGGGTTCTAACCTGTTGCTA (site TGTCTCCCTAA)”, the “recombinant barcode read abundance (log10)” value was 0.209. In the case of “TGTCTCCCTTGGGTTCTAACCTGTTGCGT (site GAAGAGGCTTG)”, the “recombinant barcode read abundance (log10)” value was 0.154. With “TGTCTCCCTTGGGTTCTAACCTGTTGCGT (site TGTCTCCCTAC)” the “recombinant barcode read abundance (log10)” value was 1.04. For “TGTCTGTCTTGGGTTCTAACCTGTTGCTT (site TGTCTGTCTAA)”, the “recombinant barcode read abundance (log10)” value was 0.186. For “TGTCTGTCTTGGGTTCTAACCTGTTGCTT (site TGTCTGTCTTA)”, the “recombinant barcode read abundance (log10)” value was 0.0372. With “TGTGACTCTTGGGTTCTAACCTGTTGCCT (site TGAGACTCTAG)” the “recombinant barcode read abundance (log10)” value was 0.088. In the case of “TGTGACTCTTGGGTTCTAACCTGTTGCCT (site TGCGACTCTAG)”, the “recombinant barcode read abundance (log10)” value was 0.0199. With “TGTGACTCTTGGGTTCTAACCTGTTGCCT (site TGGGACTCTAG)” the “recombinant barcode read abundance (log10)” value was 0.0547. With “TGTGACTCTTGGGTTCTAACCTGTTGCCT (site TGTGACTCTAG)” the “recombinant barcode read abundance (log10)” value was 0.912. With “TGTGAGCCTTGGGTTCTAACCTGTTGCGA (site CTGCGCTCTAT)” the “recombinant barcode read abundance (log10)” value was 0.0373. For “TGTGAGCCTTGGGTTCTAACCTGTTGCGA (site TGTGAGCCTTC)”, the “recombinant barcode read abundance (log10)” value was 0.748. In the case of “TGTGCACCTTGGGTTCTAACCTGTTGCAC (site TGTGCACCTGT)”, the “recombinant barcode read abundance (log10)” value was 0.32. In the case of “TGTGCACCTTGGGTTCTAACCTGTTGCAC (site TGTGCTCCTCT)”, the “recombinant barcode read abundance (log10)” value was 0.0746. For “TGTGCGACTTGGGTTCTAACCTGTTGCAC (site TGAGCTACTGT)”, the “recombinant barcode read abundance (log10)” value was 0.0835. In the case of “TGTGCGACTTGGGTTCTAACCTGTTGCAC (site TGTGCGACTGT)”, the “recombinant barcode read abundance (log10)” value was 0.0665. With “TGTGCGTCTTGGGTTCTAACCTGTTGCCT (site AGTGCGTCTAG)” the “recombinant barcode read abundance (log10)” value was 0.0921. In the case of “TGTGCGTCTTGGGTTCTAACCTGTTGCCT (site CGTGCGTCTAG)”, the “recombinant barcode read abundance (log10)” value was 0.136. In the case of “TGTGCGTCTTGGGTTCTAACCTGTTGCCT (site GGTGCGTCTAG)”, the “recombinant barcode read abundance (log10)” value was 0.0172. With “TGTGCGTCTTGGGTTCTAACCTGTTGCCT (site TGTGCGTCTAG)” the “recombinant barcode read abundance (log10)” value was 0.801.
